US20250275995A1, “NICOTINAMIDE RIBOSIDE DOSAGE REGIMEN FOR TREATING PARKINSON'S DISEASE” (VESTLANDETS INNOVASJONSSELSKAP AS (VIS), priority 2022, published 2025)

Tests used:
[1] = tested on: brain NAD levels; assay: NAD-brain pharmacokinetic study: brain NAD by 31P-MRS; type: in vivo, human; details: 11 days after last dose, 1200 mg daily for 8 days
Description: • At screening, participants are assessed for eligibility, inclusion/exclusion criteria, medical history and concomitant medication is recorded, and informed consent signed. • The NAD-brain study performs a parallel assessment of NAD replenishment therapy pharmacokinetics in the blood and brain of healthy human subjects and subjects with Parkinson's disease (PD). Healthy individuals and individuals with PD undergo repeated blood sampling and 31P-MRS brain scans during two 20-day periods, each of which starts with 8 days of daily intake of NR 600 mg×2, or NMN 600 mg×2 (Table 10). • For each 20-day period the testing (i.e., scanning and blood draw) frequency is shown in Table 10, below. The two 20-day periods are 14 days apart to allow for washout of the previous compound. This is a pharmacokinetic (PK) study where 6 healthy individuals (3 male and 3 female): • 1) Received NR 1200 mg daily (600 mg×2) for 8 days, followed by an additional 11 days follow up, while undergoing serial blood and brain NAD-measurement. • 2) Received NMN 1200 mg daily (600 mg×2) for 8 days, followed by an additional 11 days follow up, while undergoing serial blood and brain NAD-measurement. The individuals were mixed, so that in stage-1 three individuals received NR and three individuals received NMN, then in stage-2 they switched (Cross-over design). There were almost three weeks (20 days) of washout between the last dose of the first compound, and before the first dose of the second compounds. In the brain, total NAD (NAD^++NADH) levels were measured by 31P-MRS as previously described^19. […] 19 Brakedal, B. et al. The […] study: A randomized phase I trial of nicotinamide riboside supplementation in Parkinson's disease. Cell Metab 34, 396-407.e6 (2022).

[2] = tested on: blood NAD^+ levels; assay: NAD-brain pharmacokinetic study: whole blood NAD+ response; type: in vivo, human
Description: The NAD-brain study performs a parallel assessment of NAD replenishment therapy pharmacokinetics in the blood and brain of healthy human subjects and subjects with Parkinson's disease (PD). A total of 10 healthy individuals (5 men and 5 women) and 10 individuals with PD (5 men and 5 women) undergo repeated blood sampling and 31P-MRS brain scans during two 20-day periods, each of which starts with 8 days of daily intake of NR 600 mg×2, or NMN 600 mg×2. The two 20-day period is 14 days apart to allow for washout of the previous compound. Blood is analyzed for NR and NAD-metabolites using HPLC-MS. By this approach, we measured the simultaneous change in NAD-metabolism overtime in blood and brain and establish blood and brain pharmacokinetics for NAD replenishment therapy in humans.
NR (Niagen®, Chromadex) at a dose of 600 mg×2 daily). NMN (Restorin®, from Seragon Pharmaceutics, or MIB-626 from Metro International Biotech) at a dose of 600 mg×2 daily.
• At screening, participants are assessed for eligibility, inclusion/exclusion criteria, medical history and concomitant medication is recorded, and informed consent signed. • The NAD-brain study performs a parallel assessment of NAD replenishment therapy pharmacokinetics in the blood and brain of healthy human subjects and subjects with Parkinson's disease (PD). Healthy individuals and individuals with PD undergo repeated blood sampling and 31P-MRS brain scans during two 20-day periods, each of which starts with 8 days of daily intake of NR 600 mg×2, or NMN 600 mg×2 (Table 10). • For each 20-day period the testing (i.e., scanning and blood draw) frequency is shown in Table 10, below. The two 20-day periods are 14 days apart to allow for washout of the previous compound.
Blood is analyzed for NR and NAD-metabolites using HPLC-MS metabolomics. Snap-frozen whole blood is used for the analysis of NAD^+. Blood is drawn from the participant in EDTA tube (VACUETTE® TUBE 2 ml K2E K2EDTA). The EDTA tube is gently inverted at least 10 times without shaking; 8×200 μl of blood from the EDTA tube is aliquoted into 8×0.5 ml micro tubes; these are closed, and all the micro tubes are immerse simultaneously in liquid nitrogen within 2 min from when blood has started flowing into the EDTA tube; then transferred frozen to −80° C. freezer for storage; stored at −80C in freezer-compatible cardboard or plastic storage boxes; and shipped on dry ice.
This is a pharmacokinetic (PK) study where 6 healthy individuals (3 male and 3 female): • 1) Received NR 1200 mg daily (600 mg×2) for 8 days, followed by an additional 11 days follow up, while undergoing serial blood and brain NAD-measurement. • 2) Received NMN 1200 mg daily (600 mg×2) for 8 days, followed by an additional 11 days follow up, while undergoing serial blood and brain NAD-measurement.
The individuals were mixed, so that in stage-1 three individuals received NR and three individuals received NMN, then in stage-2 they switched (Cross-over design). There were almost three weeks (20 days) of washout between the last dose of the first compound, and before the first dose of the second compounds.

[3] = tested on: adult humans; details: dosages above 50-100 mg; cited from earlier work

NC(=O)c1ccc[n+]([C@@H]2O[C@H](COP(=O)([O-])O)[C@@H](O)[C@H]2O)c1 [NMN, Nicotinamide Mononucleotide]
NAD levels at day 19 [1]: returned to baseline by day 19
blood NAD^+ levels ([2]; 1200 mg daily (600 mg×2) for 8 days, 6 healthy individuals): increased in all individuals
day of maximal NAD levels in the blood ([2]; 1200 mg daily for 8 days, last dose morning of day 8): 8 days
plateau of blood NAD^+ levels ([2]; after 8 days of precursor intake, 1200 mg daily): did not plateau after 8 days

O=C(O)c1cccnc1 [nicotinic acid]
flushing with NAD precursor supplementation [3]: painful flushing
